Source: PubChem BioAssay (NCI)
Where “and” joins values, the source holds several entries; their conditions need not be identical. Equal values may be shown once.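 Where inhibition never reached the appropriate level, the endpoint shown equals the highest concentration tested. Otherwise, values were interpolated linearly from a five-concentration, 48-hour dose response in 96-well plates. Here, GI50 denotes the concentration required for 50% inhibition of growth. TGI is the concentration that stops growth completely.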

Tests used:
Test in all cases: growth of human tumour cells (NCI), 48 h
[1] = tested on: HCT-15 colon
[2] = tested on: HOP-92 NSCLC
[3] = tested on: MALME-3M melanoma
[4] = tested on: CAKI-1 renal
[5] = tested on: T-47D breast
[6] = tested on: LOX IMVI melanoma
[7] = tested on: NCI-H226 lung
[8] = tested on: HCC-2998 colon

Structure (SMILES)	TGI [1]	TGI [2] [µM]	TGI [3]	TGI [4] [µM]	TGI [5]	TGI [6] [µM]	TGI [7]	TGI [8]	GI50 [1] [µM]	GI50 [2] [µM]	GI50 [8]	GI50 [3]	GI50 [6] [µM]	GI50 [7]	GI50 [4] [µM]	GI50 [5] [µM]
CN(N=O)c1ccc(/C=C/c2ccnc3ccccc23)cc1	> 100 µM	> 100	> 100 µM	> 100	> 100 µM	> 100	> 100 µM	–	–	–	–	–	–	–	–	–
CO[C@H]1C[C@H](O[C@H]2CC[C@@]3(C)[C@H](CC[C@@H]4[C@@H]3CC[C@]3(C)[C@@H](C5=CC(=O)OC5)CC[C@]43O)C2)O[C@H](C)[C@H]1O	0.0164 µM	0.0882	0.0113 µM	0.0284	–	0.0159	0.0586 µM	0.118 µM	–	–	–	–	–	–	–	–
COc1ccc([C@@H]2[C@@H](Cl)C(=O)N2c2cc(OC)c(OC)c(OC)c2)cc1C	> 100 µM	24.9	64.8 µM	–	–	17	73.9 µM	58.4 µM	0.0535	0.144	0.347 µM	17.8 µM	0.0692	13.2 µM	–	–
COc1ccc(/C=C\c2cc(OC)c(OC)c(OC)c2)cc1NC(=O)/C=C/c1cc(OC)c(OC)c(OC)c1	> 100 µM	> 100	–	> 100	> 100 µM	> 100	> 100 µM	> 100 µM	5.14	3.6	3.73 µM	–	4.9	4.15 µM	2.94	5.01
O=C(CC1(O)C(=O)Nc2ccc(Cl)cc21)c1ccc(C(=O)NCC2CCC3(CC2)OOC2(CCCCC2)OO3)cc1 (configuration not stated)	17.2 µM	2.08	–	3.27	5.37 µM	8.85	41.2 µM	21.4 µM	3.06	0.509	4.27 µM	–	0.301	13.1 µM	1.62	1.57
CC1(C)C2CC(=O)C1(C)C(OCc1ccccc1)C2Br (configuration not stated)	31.1 µM and > 100 µM	–	36.9 µM and > 100 µM	–	77.9 µM and > 100 µM	–	56.1 µM and > 100 µM	69.3 µM and > 100 µM	–	–	27.7 µM and 98.6 µM	19.1 µM and 48.6 µM	–	23.2 µM and > 100 µM	–	–
CC1=C(\C=C/C(C)=C/C=C/C(C)=C/C=C/C=C(C)\C=C\C=C(C)/C=C/C2=C(C)CCCC2(C)C)C(C)(C)CCC1	> 100 µM	–	> 100 µM	–	> 100 µM	> 100	> 100 µM	> 100 µM	–	–	–	–	–	–	–	–
CCCCCCCCCC(=O)Oc1ccc(/C(=C(/C)c2ccccc2)c2ccc(OCCN3CCCC3)cc2)cc1	13.1 µM	15.4	15.7 µM	13.9	–	14.8	18.5 µM	17.2 µM	6.69	7.01	8.66 µM	7.76 µM	8.02	9.42 µM	6.77	–
